Source: patent US20260317324A1, “BIFUNCTIONAL COMPOUNDS FOR DEGRADING BRAF VIA UBIQUITIN PROTEOSOME PATHWAY” (Nurix Therapeutics, Inc., priority 2023, published 2026)

How the values were obtained:
Assay type in all cases: cell-based
[1] = biological target: T1, BRAF G466V (Homo sapiens, UniProt P15056, G466V); assay: BRAF HiBiT degradation assay, C-terminal HiBiT-tagged BRAF G466V overexpressed in HCT-116 BRAF−/− cells (clone 8), Nano-Glo HiBiT Lytic assay
T1 construct: Horizon Discovery (HCT-116 BRAF−/− cells); host or cells: HCT-116 BRAF−/− cells, clone 8, lentiviral transduction
T1 sequence (P15056 whole entry G466V): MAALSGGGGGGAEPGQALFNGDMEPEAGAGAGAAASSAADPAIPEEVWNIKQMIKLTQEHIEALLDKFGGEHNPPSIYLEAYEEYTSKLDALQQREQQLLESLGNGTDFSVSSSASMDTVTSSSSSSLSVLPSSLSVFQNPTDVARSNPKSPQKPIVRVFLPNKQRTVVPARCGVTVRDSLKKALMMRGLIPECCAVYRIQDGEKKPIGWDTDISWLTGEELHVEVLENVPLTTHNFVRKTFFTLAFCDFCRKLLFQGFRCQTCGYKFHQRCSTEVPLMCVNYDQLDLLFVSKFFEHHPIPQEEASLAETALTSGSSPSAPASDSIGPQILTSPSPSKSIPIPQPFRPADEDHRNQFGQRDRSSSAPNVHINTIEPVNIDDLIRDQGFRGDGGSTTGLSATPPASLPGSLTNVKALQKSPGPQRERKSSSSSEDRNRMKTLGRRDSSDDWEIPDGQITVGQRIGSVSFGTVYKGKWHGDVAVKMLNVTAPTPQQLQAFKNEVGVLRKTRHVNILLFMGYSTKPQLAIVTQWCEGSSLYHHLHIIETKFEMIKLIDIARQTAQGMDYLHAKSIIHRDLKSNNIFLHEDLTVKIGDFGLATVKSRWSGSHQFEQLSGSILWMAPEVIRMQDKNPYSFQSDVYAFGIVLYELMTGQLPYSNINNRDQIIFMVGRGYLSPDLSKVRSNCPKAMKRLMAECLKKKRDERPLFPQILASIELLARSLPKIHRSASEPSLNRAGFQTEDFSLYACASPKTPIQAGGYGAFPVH
Procedure, shortened: (§1)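 Cells 3,000/well, 24 h at 37 °C; cpds 1 μM–0.01 nM, 11-pt half-log, duplicate, 0.2% DMSO. Readout: HiBiT lytic luminescence, 10 min at RT. Normalized to DMSO-treated tagged cells, with DMSO-treated wild-type HCT-116 as background. DC50 = fitted concentration at Y=50; Obs. Dmax = % degraded at maximal effect.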

[2] = biological target: T2, BRAF G469A (Homo sapiens, UniProt P15056, G469A); assay: BRAF HiBiT degradation assay, C-terminal HiBiT-tagged BRAF G469A overexpressed in HCT-116 BRAF−/− cells (clone 34), Nano-Glo HiBiT Lytic assay
T2 construct: Horizon Discovery (HCT-116 BRAF−/− cells); host or cells: HCT-116 BRAF−/− cells, clone 34, lentiviral transduction
T2 sequence (P15056 whole entry G469A): as the sequence (P15056 whole entry G466V) above, with V466G, G469A counted along it
Procedure, shortened: as §1

[3] = biological target: T3, BRAF D594G (Homo sapiens, UniProt P15056, D594G); assay: BRAF HiBiT degradation assay, C-terminal HiBiT-tagged BRAF D594G overexpressed in HCT-116 BRAF−/− cells (clone 63), Nano-Glo HiBiT Lytic assay
T3 construct: Horizon Discovery (HCT-116 BRAF−/− cells); host or cells: HCT-116 BRAF−/− cells, clone 63, lentiviral transduction
T3 sequence (P15056 whole entry D594G): as the sequence (P15056 whole entry G466V) above, with V466G, D594G counted along it
Procedure, shortened: as §1

[4] = biological target: T4, BRAF V600E (Homo sapiens, UniProt P15056, V600E); assay: BRAF HiBiT degradation assay, C-terminal HiBiT-tagged BRAF V600E A375 cells (clone 1F10), Nano-Glo HiBiT Lytic assay; settings: for Dmax: A-375
T4 construct: endogenous C-terminal HiBiT fusion tag on BRAF V600E allele; endogenous in cells; host or cells: A375 clone 1F10 (CRISPR-Cas9 knock-in of the HiBiT tag; parental A375 from ATCC)
T4 sequence (P15056 whole entry V600E, the tested form may be a part): as the sequence (P15056 whole entry G466V) above, with V466G, V600E counted along it
Procedure, shortened: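 Luminescence read-out: Nano-Glo HiBiT lytic reagent with LgBiT, 10 min at room temperature. Signal normalised to DMSO-treated tagged cells, with wildtype A375 as background. Cells are endogenously tagged BRAF V600E A375 clone 1F10. Compounds were tested from 1 μM to 0.01 nM; Dmax is observed % degraded at maximal effect.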

[5] = BRAF G466V, DC50 at 50%: fitted conc. at Y=50
[6] = HCT-116, BRAF G466V, percentage protein degraded at maximal compound effect relative to DMSO
[7] = Class 2, BRAF G469A, DC50 at 50%: fitted conc. at Y=50
[8] = HCT-116, Class 2, BRAF G469A, percentage protein degraded at maximal compound effect relative to DMSO
[9] = BRAF D594G, DC50 at 50%: fitted conc. at Y=50
[10] = HCT-116, BRAF D594G, percentage protein degraded at maximal compound effect relative to DMSO
[11] = A375 (BRAF V600E), DC50 at 50%: fitted conc. at Y=50
[12] = A375 (BRAF V600E), percentage protein degraded at maximal compound effect relative to DMSO
[13] = BRAF G466V (Class 3), HCT-116 BRAF−/− cells, DC50 at 50% degradation
[14] = BRAF G466V (Class 3), HCT-116 BRAF−/− cells, observed Dmax relative to DMSO control
[15] = BRAF G469A (Class 2), HCT-116 BRAF−/− cells, DC50 at 50% degradation
[16] = BRAF G469A (Class 2), HCT-116 BRAF−/− cells, observed Dmax relative to DMSO control
[17] = BRAF D594G (Class 3), HCT-116 BRAF−/− cells, DC50 at 50% degradation
[18] = BRAF D594G (Class 3), HCT-116 BRAF−/− cells, observed Dmax relative to DMSO control
[19] = A375 (BRAF V600E, Class 1), DC50 at 50% degradation
[20] = A375 (BRAF V600E, Class 1), observed Dmax, % protein degraded relative to DMSO control

DC50 [1, 5] [nM]	Dmax [1, 6] [%]	DC50 [2, 7] [nM]	Dmax [2, 8] [%]	DC50 [3, 9] [nM]	Dmax [3, 10] [%]	DC50 [4, 11] [nM]	Dmax [4, 12] [%]	DC50 [1, 13] [nM]	Dmax [1, 14] [%]	DC50 [2, 15] [nM]	Dmax [2, 16] [%]	DC50 [3, 17] [nM]	Dmax [3, 18] [%]	DC50 [4, 19] [nM]	Dmax [4, 20] [%]	SMILES
> 500	< 30	> 500	< 30	> 500	< 30	< 10	> 70									CCCS(=O)(=O)Nc1cccc(-c2nc(C)sc2-c2ccnc(Nc3ccc(C4CCN(C(=O)CC5CCN(c6ccc(NC7CCC(=O)NC7=O)cc6)CC5)CC4)cc3)n2)c1F (racemic) [Compound 44, Rac-N-{3-[5-(2-{[4-(1-{2-[1-(4-{[(3R)-2,6-dioxopiperidin-3-yl]amino}phenyl)piperidin-4-yl]acetyl}piperidin-4-yl)phenyl]amino}pyrimidin-4-yl)-2-methyl-1,3-thiazol-4-yl]-2-fluorophenyl}propane-1-sulfonamide]
< 10	30 to 70	10 to 50	30 to 70	< 10	30 to 70	< 10	> 70									CCCS(=O)(=O)Nc1cccc(-c2nc(C3CCN(C(=O)C4(C)CCN(C(=O)C5CCN(c6ccc(C7CCC(=O)NC7=O)cn6)CC5)CC4)CC3)sc2-c2ccnc(N)n2)c1F (racemic) [Compound 197, Rac-N-{3-[5-(2-aminopyrimidin-4-yl)-2-{1-[1-(1-{5-[(3R)-2,6-dioxopiperidin-3-yl]pyridin-2-yl}piperidine-4-carbonyl)-4-methylpiperidine-4-carbonyl]piperidin-4-yl}-1,3-thiazol-4-yl]-2-fluorophenyl}propane-1-sulfonamide]
								< 10	> 70	10 to 50	30 to 70	< 10	30 to 70	< 10	> 70	O=C1CCC(c2ccc(N3CCC(CN4CCN(c5cc(F)c(-n6cc(-c7cc(Cl)cc(NS(=O)(=O)N8CCCC8)c7F)c(-c7ccncc7)n6)cc5F)CC4)CC3)nc2)C(=O)N1 (racemic) [Compound 354, Rac-N-{5-chloro-3-[1-(4-{4-[(1-{5-[(3R)-2,6-dioxopiperidin-3-yl]pyridin-2-yl}piperidin-4-yl)methyl]piperazin-1-yl}-2,5-difluorophenyl)-3-(pyridin-4-yl)-1H-pyrazol-4-yl]-2-fluorophenyl}pyrrolidine-1-sulfonamide]
								< 10	30 to 70	> 500	30 to 70	< 10	30 to 70	< 10	> 70	O=C1CCN(c2ccc(N3CCC(CN4CCN(c5ccc(-n6cc(-c7cc(Cl)cc(NS(=O)(=O)N8CCCC8)c7F)c(-c7ccncc7)n6)c(F)c5)CC4)CC3)nc2)C(=O)N1 [Compound 370, N-[5-chloro-3-(1-{4-[4-({1-[5-(2,4-dioxo-1,3-diazinan-1-yl)pyridin-2-yl]piperidin-4-yl}methyl)piperazin-1-yl]-2-fluorophenyl}-3-(pyridin-4-yl)-1H-pyrazol-4-yl)-2-fluorophenyl]pyrrolidine-1-sulfonamide]
10 to 50	30 to 70	> 500	< 30	> 500	30 to 70	10 to 50	> 70									CCCS(=O)(=O)Nc1cccc(-c2cn(-c3ccc(N4CCN(CC5CCN(c6ccc([C@@H]7CCC(=O)NC7=O)cc6)CC5)CC4)nc3)nc2-c2ccncc2)c1F [Compound 4, N-{3-[1-(6-{4-[(1-{4-[(3S)-2,6-dioxopiperidin-3-yl]phenyl}piperidin-4-yl)methyl]piperazin-1-yl}pyridin-3-yl)-3-(pyridin-4-yl)-1H-pyrazol-4-yl]-2-fluorophenyl}propane-1-sulfonamide]
50 to 500	< 30	50 to 500	< 30	50 to 500	< 30	< 10	> 70									CCCS(=O)(=O)Nc1cccc(-c2nc(C(C)(C)C)sc2-c2ccnc(Nc3cnn(CC4CCN(CC5CCN(c6ccc7c(=O)n(C8CCC(=O)NC8=O)ccc7c6)CC5)CC4)c3)n2)c1F (racemic) [Compound 83, Rac-N-{3-[2-tert-butyl-5-(2-{[1-({1-[(1-{2-[(3R)-2,6-dioxopiperidin-3-yl]-1-oxo-1,2-dihydroisoquinolin-6-yl}piperidin-4-yl)methyl]piperidin-4-yl}methyl)-1H-pyrazol-4-yl]amino}pyrimidin-4-yl)-1,3-thiazol-4-yl]-2-fluorophenyl}propane-1-sulfonamide]
								< 10	> 70	10 to 50	30 to 70	< 10	> 70	< 10	> 70	C[C@@H]1CN(c2ccc(-n3cc(-c4cc(Cl)cc(NS(=O)(=O)N5CCCC5)c4F)c(-c4ccncc4)n3)nc2)CCN1CC1CCN(c2ccc([C@H]3CCC(=O)NC3=O)cc2)CC1 [Compound 326, N-[5-chloro-3-(1-{5-[(3R)-4-[(1-{4-[(3R)-2,6-dioxopiperidin-3-yl]phenyl}piperidin-4-yl)methyl]-3-methylpiperazin-1-yl]pyridin-2-yl}-3-(pyridin-4-yl)-1H-pyrazol-4-yl)-2-fluorophenyl]pyrrolidine-1-sulfonamide]
< 10	30 to 70	> 500	30 to 70	> 500	30 to 70	50 to 500	30 to 70									CCCS(=O)(=O)Nc1cccc(-c2nc(C(C)(C)C)sc2-c2ccnc(NCC(C)(C)C3CCN(CC4CCN(c5ccc(C(=O)N[C@H]6CCC(=O)NC6=O)nc5)CC4)CC3)n2)c1F [Compound 146, 5-{4-[(4-{1-[(4-{2-tert-butyl-4-[2-fluoro-3-(propane-1-sulfonamido)phenyl]-1,3-thiazol-5-yl}pyrimidin-2-yl)amino]-2-methylpropan-2-yl}piperidin-1-yl)methyl]piperidin-1-yl}-N-[(3S)-2,6-dioxopiperidin-3-yl]pyridine-2-carboxamide]
								< 10	> 70	< 10	> 70	< 10	> 70	< 10	> 70	O=C1CC[C@H](c2ccc(N3CCC(CN4CCN(c5ccc(-n6cc(-c7cc(Cl)cc(NS(=O)(=O)N8CCCC8)c7F)c(-c7ccncc7)n6)cc5)CC4)CC3)cc2F)C(=O)N1 [Compound 344, N-{5-chloro-3-[1-(4-{4-[(1-{4-[(3R)-2,6-dioxopiperidin-3-yl]-3-fluorophenyl}piperidin-4-yl)methyl]piperazin-1-yl}phenyl)-3-(pyridin-4-yl)-1H-pyrazol-4-yl]-2-fluorophenyl}pyrrolidine-1-sulfonamide]
> 500	30 to 70	> 500	< 30	> 500	30 to 70	10 to 50	> 70									CCCS(=O)(=O)Nc1cccc(-c2nc(C(C)(C)C)sc2-c2ccnc(Nc3cccc(OC4CCN(C(=O)[C@H]5CC[C@H](Oc6ccc(C7CCC(=O)NC7=O)cn6)CC5)CC4)c3)n2)c1F (mixture of isomers) [Compound 97, N-{3-[2-tert-butyl-5-(2-{[3-({1-[(1r,4r)-4-({5-[(3RS)-2,6-dioxopiperidin-3-yl]pyridin-2-yl}oxy)cyclohexanecarbonyl]piperidin-4-yl}oxy)phenyl]amino}pyrimidin-4-yl)-1,3-thiazol-4-yl]-2-fluorophenyl}propane-1-sulfonamide]
